For the assay, the system named is ArBNR3. The assay is described as follows: Luminescence (GFP-aequorin Ca2+) assay, CHO-K1 cells coexpressing ArBNR3 and Gqs5. Format: cell-based, Asterias rubens. As to conditions: ArBNR3, words; up to 10^-5 M. How it is done:
Having investigated relationships of eleven A. rubens BN-type receptor candidates (ArBNR1-11) with BN-type, ET-type, and CCHa/EP-type receptors in other taxa, ArBNR1 was identified as the best candidate and therefore this was selected for experimental testing. However, two other receptors (ArBNR2 and ArBNR3) were also tested. The methods employed for functional characterization of A. rubens neuropeptide receptors have been described previously ([57]) and a description of the methods employed in this study is included in SI Appendix, SI Methods. […]
Functional characterization of A. rubens BN-type receptors
Two cDNAs encoding ArBNR1 and ArBNR3 were cloned from A. rubens radial nerve cord cDNA using Q5 polymerase (NEB, Cat. no. M0491S) and PCR with specific primers (SI Appendix, Table S5). To facilitate expression of the cloned receptors, the forward primers were designed to contain a partial Kozak consensus sequence (ACC) before the ATG start codon. Then, PCR products were inserted into the mammalian expression vector pcDNA 3.1(+) (Invitrogen, Cat. no.
V79020) that had been cut in advance with the restriction enzyme EcoRV (NEB, Cat. no. […] Successful ligation and the direction of the insert was determined by restriction enzyme digestion and sequencing (TubeSeq service; Eurofins Genomics). […]
identical to residues 18 - 270 of the protein XP_033631283.1, which was determined from genome […]

Consider “EPMPSSLALYIANLSP-NH2 [ArBNP65-81, C-terminally amidated 16-residue peptide predicted to be derived from residues 65 to 81 of ArBNP]”, for which the peptide-induced luminescence result is “did not trigger luminescence”. Regarding “NYNRVFGPTY-NH2 [ArBN5-14, C-terminally amidated 10-residue peptide corresponding to the C-terminal region of ArBN]”, the peptide-induced luminescence result is given as “did not trigger luminescence”.

(Values after paper PMC12002301, “Discovery and functional characterization of a bombesin-type neuropeptide signaling system in an invertebrate” (Proceedings of the National Academy of Sciences of the …, 2025).)
